Laboratory results from patent US11926826B2, “Twist signaling inhibitor compositions and methods of using the same” (City of Hope, priority 2016, dated 2024).
[iaB] = inverted abasic ribose cap; [2sU] = 2-thio-2'-deoxyuridine; d = 2'-deoxy (DNA); m = 2'-O-methyl; r = 2'-OH (RNA)

Tests used:
[1] = system: Ov8GFP-TWIST1 cells; assay: SRB assay, cisplatin plus PI3K inhibitor LY294002; assay type: cell-based, human
Experimental: Sulphorhodamine B assays. Cells were plated at 5,000 per well in normal medium in 96 well plates (100 μL/well), n=6 per drug concentration, per condition. Cells were allowed to adhere overnight, and then cisplatin was added. Cisplatin was prepared at 2× concentration in 100 μL normal medium, and then added to cells to yield 200 μL at 1×. Following 3 day incubation with cisplatin, medium was removed and cells were fixed with 10% trichloroacetic acid (TCA, 100 μL/well) at 4° C. for 1 hr. TCA was then removed and wells were rinsed with 200 μl water and allowed to air dry 10 min. […] Plates were air dried and excess SRB adhered to the walls of the wells was removed with a cotton swab. Finally, SRB was solubilized in 10 mM Tris base (200 μL/well) and absorbance was measured at 570 nm on a SpectraMax Plus plate reader (Molecular Devices, Sunnyvale, CA). Readings for each condition were normalized to untreated wells from the same condition. Cisplatin concentrations were adjusted to fit experimental demands. […] For Akt studies, the PI3K inhibitor LY294002 was used to inhibit Akt activation (FIGS. 25A-25D), and was obtained from Cell Signaling Technology (Danvers, MA).

[2] = system: TWIST; assay: TWIST knockdown after MSN delivery of siRNA in ovarian cancer cell lines; assay type: cell-based
Experimental: MSN design and delivery. Mesoporous silica nanoparticles (MSNs) were synthesized utilizing the sol-gel method as described previously. First, 250 mg 95% cetyltrimethylammonium bromide (CTAB) was dissolved in 120 ml of water with 875 μl 2M sodium hydroxide solution, at 80° C. Next, 1.2 ml of 98% tetraethylorthosilicate was added. After 15 min, 300 μl of 42% 3-(trihydroxysilyl) propyl methylphosphonate was added, and the mixture was stirred 2 hr. Particles were collected using centrifugation and washed with methanol. Acidic methanol was then used to remove any remaining CTAB surfactants. Zeta potential at 50 μg/mL was 43.75 mV [14]. All chemicals were obtained from Aldrich (St. Louis, MO). Particles were ˜120 nm in diameter, with 2.5 nm pores. Low molecular weight (1.8 kD branched polymer) polyethyleneimine (PEI) was electrostatically attached to the particle surface to provide a positive change to attract negatively charged siRNA [21]. To complex siRNA for in vitro experiments, 10 μl siRNA at 10 μM was mixed with 70 ul MSNs at 500 μg/ml and 20 μl water, and the mixture was incubated overnight at 4° C. on a roller. The following day, 100 μl of the MSN-siRNA complexes was added to each well of a 6-well plate containing 1900 μl normal medium.
(§1) Western Blotting. Following siRNA treatment, cells were pelleted and lysed in RIPA buffer. Protein concentration was determined by BCA assay (Thermo Fisher). Following SDS-PAGE, protein was transferred to Amersham PVDF membrane (Genesee Scientific) using a BioRad Trans-Blot SD semi-dry transfer unit. Blots were then blocked in milk for one hour at room temperature or overnight at 4° C. Incubation with primary antibody took place for one hour at room temperature or overnight at 4° C. Antibodies were diluted in 5% milk, with 0.1-0.2% Tween-20. Antibodies used were TWIST 2c1a (Santa Cruz Biotechnology, Dallas, TX) at 1:250-1:500 dilution, β-Actin, A1978 (Sigma Aldrich, St. Louis, MO) at 1:2500-1:5000 dilution; and Horseradish Peroxidase (HRP) conjugated anti-mouse secondary antibodies. […]

[3] = system: TWIST1; assay: TWIST1 knockdown after Lipofectamine 2000 transfection of siRNA in MDA-MB-435S cells (western blot); assay type: cell-based, human; details: unmodified vs passenger-strand modified si419
Experimental: Transient transfection of MDA-MB-435S GFP+ffluc was carried out using LIPOFECTAMINE® 2000 (Thermo Fisher Scientific, Waltham, MA) according to the manufacturer's instructions. LIPOFECTAMINE® 2000 transfection was used to confirm the functionality of the siRNA (si419 and si494) prior to testing their efficacy with MSNs. Transfection of siRNA with MSNs was carried out by incubating the MSNs with the siRNA overnight at 4° C. while rotating the tube constantly. The mixture consisted of 7 parts MSN (diluted to 500 ng/ul in sterile PBS) to 1 part siRNA (diluted to 10 uM). The final concentration for of MSNs and siRNA applied to cells was 17.5 ng/ul and 50 nM, respectively.
Western Blot. Following siRNA treatment described above, cells were lifted from tissue culture wells with 0.25% trypsin, pelleted, and lysed in RIPA buffer. Protein concentration was determined using a BCA Assay (Thermo Fisher Scientific). A total of 30 μg of protein per lane was run on 4% stacking and 12% resolving polyacrylamide gels. Following gel electrophoresis, protein was transferred to Immobilon-P PVDF membrane (Millipore, Billerica, MA) using a Trans-Blot SD Semi-Dry Transfer Cell (Bio-Rad, Hercules, CA). Membranes were then blocked with 5% dry milk dissolved in 1×PBS with 0.1% Tween-20. Antibodies were diluted in blocking buffer (1:250 for anti-TWIST1 and 1:2,500 for anti-Actin). […]

[4] = system: TWIST1; assay: TWIST1 knockdown after Lipofectamine 2000 transfection in SUM 1315; assay type: cell-based, human
Experimental: (§2) Cell Culture, Transfection, and Stable Cell Line Production. SUM 1315 breast cancer cells were obtained from ATCC (Manassas, VA). Cells were maintained at 37° C., 5% CO2, and 90% humidity in a tissue culture incubator. Media for SUM 1315 cells consisted of a 50-50 mixture of DMEM and F12 media, supplemented with 5 μg/ml insulin, 10 ng/ml EGF, 5% fetal bovine serum, and 1% penicillin/streptomycin. Cells were passaged using 0.25% trypsin (Genesee Scientific, San Diego, CA) every 2-3 days as they reached confluency. […]
(§3) Quantitative PCR. […] RNA quantity and quality was measured and analyzed (with 260/280 nm and 260/230 nm spectra measurements) using a NanoDrop ND-1000 (Thermo Fisher Scientific, Waltham, MA). […] Quantitative RT-PCR was performed in quadruplicate using Maxima SYBR Green Master Mix (Thermo Fisher Scientific, Waltham, MA) in 25 μl reactions. […] Data were analyzed using Bio-Rad iQ5 software using the 2^−ΔΔ^Ct method and normalized to Actin. […]
Western Blot. […] Cells were pelleted, lysed in RIPA buffer, and protein concentration was determined using the BCA Assay (Thermo Fisher Scientific, Waltham, MA). […]

[5] = system: TWIST; assay: TWIST knockdown after YTZ3-15 delivery of siRNA in ovarian cancer cell lines; assay type: cell-based
Experimental: PAMAM dendrimer design and delivery. The polyamidoamine (PAMAM) dendrimer used in this study is the […] third generation dendrimer, illustrated in FIG. 16A and previously described. To complex the dendrimer with siRNA, YTZ3-15 at 240 μM was mixed with […] in OptiMEM Low Serum Medium (Thermo Fisher). Upon complexing with siRNA, dendrimers form micelle structures with siRNA at the surface and the hydrophobic tails sequestered in the core (FIG. 16B). 14.6 μl YTZ3-15 and 10 μl siRNA were used per well of a 6-well plate. Final concentrations of YTZ3-15 and siRNA once added to cells were 1.75 μM and 50 nm, respectively. Where indicated, 3.5 μM YTZ3-15 and 100 nm siRNA were used for Ovcar8.
Western Blotting. Following siRNA treatment, cells were pelleted and lysed in RIPA buffer. Protein concentration was determined by BCA assay (Thermo Fisher). Following SDS-PAGE, protein was transferred to Amersham PVDF membrane (Genesee Scientific) using a BioRad Trans-Blot SD semi-dry transfer unit. Blots were then blocked in milk for one hour at room temperature or overnight at 4° C. Incubation with primary antibody took place for one hour at room temperature or overnight at 4° C. Antibodies were diluted in 5% milk, with 0.1-0.2% Tween-20. Antibodies used were TWIST 2c1a (Santa Cruz Biotechnology, Dallas, TX) at 1:250-1:500 dilution, β-Actin, A1978 (Sigma Aldrich, St. Louis, MO) at 1:2500-1:5000 dilution; and Horseradish Peroxidase (HRP) conjugated anti-mouse secondary antibodies. For film-based westerns, Blue Devil film (Genesee Scientific) and ECL Plus chemiluminescent substrate (Thermo Fisher) were used to detect protein. For digital westerns, the Syngene Pxi4 digital blot imager and Michigan Diagnostics FemtoGlow chemilumescent substrate were used.

[6] = system: TWIST; assay: TWIST knockdown after Lipofectamine 2000 transfection in A2780R (western blot); assay type: cell-based; details: over three days post transfection
Experimental: Cell Culture. A2780R and all derivatives of Ovcar8 were grown in RPMI 1640 (Genesee Scientific, San Diego, CA) in a tissue culture incubator at 37° C., 5% CO2, and 90% humidity. Growth medium was supplemented with 10% fetal bovine serum and 1% penicillin/streptomycin. Cells were passaged every 2-4 days using 0.25% trypsin (Genesee Scientific). Where indicated, cells were transfected with Lipofectamine 2000 (Thermo Fisher, Waltham, MA) according to the manufacturer's instructions. A2780R cells are a cisplatin resistant derivative of A2780.
as §1

[7] = system: Vimentin mRNA; assay: qPCR after YTZ3-15 delivery of siTwist in SUM 1315: Vimentin; assay type: cell-based, human; details: delivered via YTZ3-15; after one day
Experimental: as §2, §3

[8] = system: N-Cadherin mRNA; assay: qPCR after YTZ3-15 delivery of siTwist in SUM 1315: N-Cadherin; assay type: cell-based, human; details: delivered via YTZ3-15; after seven days
Experimental: as §2, §3

O=c1cc(N2CCOCC2)oc2c(-c3ccccc3)cccc12 [LY294002]
greater cell death vs cisplatin alone ([1]; combination with 5 μM cisplatin): 15% | greater cell death vs cisplatin alone ([1]; combination with 10 μM cisplatin): 25%

si419H: chemically modified si419 duplex: 2′-O-methyl and inverted abasic ribose on passenger strand (SEQ ID NO:11; guide SEQ ID NO:12) (sense GGACAAGCUGAGCAAGAUU; antisense AAUCUUGCUCAGCUUGUCCUU; siRNA; sense: sugars from the 5' end r17 m2, [iaB] at 5' end, 3' end, backbone not given here; antisense: sugars from the 5' end r16 d1 r4, [2sU] at 17, backbone not given here)
TWIST knockdown ([2]; Ovcar8-IP, MSNs): robust knockdown of TWIST even after 24 hours | knockdown (efficiency, FIG. 6) [3]: approximately 80%

si494: anti-TWIST siRNA; passenger 5′-GCGACGAGCUGGACUCCAA-3′ (SEQ ID No: 3), guide 5′-UUGGAGUCCAGCUCGUCGCUU-3′ (SEQ ID No: 4) (listed as RNA, chemistry not fully specified)
TWIST knockdown ([2]; A2780R and Ovcar8, loaded onto MSNs): robust TWIST knockdown lasting one week post transfection | TWIST1 knockdown (protein and mRNA) [4]: slightly more knockdown than siTwistA | TWIST knockdown ([5]; A2780R): successfully knocked down TWIST | TWIST knockdown ([5]; Ovcar8, double the usual dose (100 nM siRNA)): minimal | TWIST expression [6]: completely inhibit TWIST expression | Vimentin mRNA level [7]: nearly undetectable | N-Cadherin mRNA decrease [8]: approximately 90%
